Experimental data from patent US11261429B2, “Enriched and expanded human cord blood stem cells for treatment of hematological disorders” (ICAHN SCHOOL OF MEDICINE AT MOUNT SINAI, priority 2013, dated 2022).
“Also recorded” adds a separate entry of the source.

Key:
[1] = tested on: CB CD34+ cells; experiment: Ex vivo expansion of CB CD34+ cells with HDACIs, phenotypic analysis by flow cytometry; assay type: cell-based, human; conditions: VPA alone (no cytokines), SF, 7 days after 16 h priming
[2] = tested on: hTERT; experiment: qPCR of pluripotency genes in CD34+ cells; assay type: cell-based, human; conditions: VPA-treated CD34+ cells
Description: Total RNA was extracted from the human ES cell line 89 (WA09; WiCell Research Institute Inc., Madison, Wis., USA), PCs, reisolated CD34+ cells from control cultures or cultures containing VPA in SF and SC media using TRIzol and an RNeasy kit from QIAGEN, CA. Total RNA (0.5-1.0 μg) was reverse transcribed into cDNA using an RNA to cDNA EcoDry Premix kit (Clontech). The primer sequences are listed in Table 6. qPCR was performed using SYBR Green (Thermo Fisher Scientific) and the Realplex thermocycler (Eppendorf). All experiments were performed in triplicate, and non-template controls (lacking cDNA template were included in each assay. GAPDH served as an internal standard. The amplicons were run on a 2% agarose gel with a 50-bp-size (DNA ladder) marker.

[3] = tested on: HDAC2; experiment: HDAC protein levels in CB-MNCs, Western blot densitometry; assay type: cell-based, human; conditions: 24 hr, SCR 8 μM, C433 80 μM, VPA 1.25 mM
[4] = tested on: ALDH activity; experiment: ALDH activity (Aldefluor) in expanded CB CD34+ cells; assay type: cell-based, human; conditions: cytokines, 7 days
Text: Increased ALDH activity is a characteristic of primitive hematopoietic cells and cancer stem cells (Hess et al., Functional Characterization of Highly Purified Human Hematopoietic Repopulating Cells Isolated According to Aldehyde Dehydrogenase Activity,” Blood 104:1648-1655 (2004); Lioznov et al., “Aldehyde Dehydrogenase Activity as a Marker for the Quality of Hematopoietic Stem Cell Transplants,” Bone Marrow Transplant 35:909-914 (2005); Storms et al., “Distinct Hematopoietic Progenitor Compartments are Delineated by the Expression of Aldehyde Dehydrogenase and CD34,” Blood 106:95-102 (2005); Aguila et al., “SALL4 is a Robust Stimulator for the Expansion of Hematopoietic Stem Cells,” Blood 118:576-585 (2011), which are hereby incorporated by reference in their entirety). To identify cell populations with high ALDH activity, an Aldefluor kit (StemCell Technologies Inc.) was used according to the manufacturer's instructions, Cells (1×10^6/ml) were suspended in assay buffer, then half of the cells were added to the Aldefluor substrate (test sample) and the remaining half was added to DEAB inhibitor (control sample). The test and control samples were incubated for 40 minutes at 37° C. Cells were subsequently stained with CD34-APC and/or CD117-PE mAbs or an isotype-matched IgG for an additional 20 minutes. Cells were washed and analyzed by a BD FACSCanto II Flow Cytometer.

[5] = tested on: NSG mice; experiment: Limiting dilution analysis of SCID-repopulating cells (SRC) in NSG mice; assay type: in vivo; conditions: for No. of mice with human cell chimerism/total number of mice transplanted: 12 to 13 weeks
Description: The frequency of human SRCs in PCs and the progeny of an equivalent number of CD34+ cells that were expanded under control conditions or in the presence of VPA were analyzed by limiting dilution analysis as described previously (Boitano et al., “Aryl Hydrocarbon Receptor Antagonists Promote the Expansion of Human Hematopoietic Stem Cells,” Science 329:1345-1348 (2010), which is hereby incorporated by reference in its entirety). Increasing numbers of PCs (50, 250, 500, 2,500, 5,000) or the progeny of an equivalent number of PCs cultured with VPA for 7 days or under control conditions were infused into NSG mice (n=111). The data from the limiting dilution experiments were pooled and analyzed by applying Poisson statistics to the single-hit model (n=111). The frequency was calculated using L-Calc software (StemCell Technologies Inc.) and plotted using ELDA software (bioinf.wehi.edu.au/software/elda/), available at the Walter and Eliza Hall Bioinformatics Institute of Medical Research. The tog fraction of non-responding values was converted to the percentage of negative mice using the following formula: percentage of negative mice=e log fraction.

[6] = tested on: NSG mice; experiment: Teratoma formation assay in NSG mice; assay type: in vivo; conditions: 1×10^6 re-isolated CD34+ cells subcutaneously, 8 weeks
Description: CD34+ cells (1×10^6) re-isolated from control cultures or cultures containing VPA or a similar number of ES cells were suspended in 100 μl of PBS. These cells were mixed with an equal volume of ice-cold Matrigel and injected subcutaneously into the right hind limb of three NSG mice per group (re-isolated CD34+ cells from control cultures, VPA-treated cultures, and ES cells). The mice were observed weekly for teratoma formation and sacrificed after 8 weeks. Teratomas were dissected, fixed, sectioned, and stained with H&E and examined morphologically (O'Connor et al., “Functional Assays for Human Embryonic Stem Cell Pluripotency,” Methods Mol Biol. 690:67-80 (2011), which is hereby incorporated by reference in its entirety).

[7] = tested on: ALDH+CD34+ and ALDH-CD34+ cells; experiment: BFU-E + CFU-Mix generated from sorted ALDH+CD34+ and ALDH-CD34+ cells; assay type: cell-based, human
Text: A far greater number of BFU-E+CFU-Mix were generated from ALDH+CD34+ cells generated in the presence of each of the HDACI in SF cultures as compared with SC cultures (ANOVA, p=0.001). By contrast, a greater number of BFU-E+CFU-Mix were generated from ALDH-CD34+ cells in SC cultures as compared to SF cultures. Mean±SE, ANOVA, p=0.01 (n=3).
Purified ALDH+CD34+ cells generated using SF cultures supplemented with VPA generated greater absolute numbers of BFU-E and CFU-Mix (8.4×10^7±6.7×10^7/CB collection) as compared to SC cultures (1.4×10^7±0.88×10^7; ANOVA, p=0.001) (FIG. 20A). By contrast, ALDH-CD34+ cells from SC cultures supplemented with VPA generated greater numbers of BFU-E and CFU-Mix (2.7×10^6±1.0×10^6) as compared to SF cultures (3.5×10^5±0.78×10^5) (ANOVA, p=0.01) (FIG. 20B).

[8] = tested on: HDAC5; experiment: HDAC protein levels in CB-MNCs, Western blot densitometry; assay type: cell-based, human; conditions: 24 hr, SCR 8 μM, C433 80 μM, VPA 1.25 mM
Description: Cellular proteins were separated by SDS-PAGE using Novex (Invitrogen) and transferred by iBlot (Invitrogen). The membranes were probed with mAbs against individual histone deacetylases (HDAC1, HDAC2, HDAC3, HDAC4, HDAC5, HDAC6, and β-actin; Cell Signaling Technology) and developed using a chemiluminescence system with HRP-conjugated secondary antibodies (Amersham Biosciences) according to the manufacturer's instructions.

[9] = SC cultures supplemented with VPA
[10] = SF cultures supplemented with VPA

Question: CCCC(CCC)C(=O)O [VPA, valproic acid] was tested. Which “fold expansion of CD34+ cells per CB collection” value [1] did it give?
Answer: 9.0 fold

Question: And the “fold expansion of CD34+CD90+ cells per CB collection” value [1]?
Answer: 486 fold

Question: And the hTERT expression [2]?
Answer: not upregulated

Question: And the “HDAC2 expression relative to b-ACTIN (%)” value [3]?
Answer: 45.8 ± 25.2%

Question: What about the “Frequency of ALDH+ cells” value ([4]; SC cultures) of the same compound?
Answer: 41.7 ± 3.3^A %

Question: What about the “Frequency of ALDH+CD34+ cells” value ([4]; SC cultures) of the same compound?
Answer: 26.1 ± 5.5^A %

Question: What about the “Frequency of ALDH+CD34+CD117+ cells” value ([4]; SC cultures) of the same compound?
Answer: 29.4 ± 1.4^A %

Question: What about the “Frequency of ALDH+ cells” value ([4]; SF cultures) of the same compound?
Answer: 86.6 ± 7.4^A %

Question: What about the “Frequency of ALDH+CD34+ cells” value ([4]; SF cultures) of the same compound?
Answer: 71.1 ± 3.1^A %

Question: What about the “Frequency of ALDH+CD34+CD117+ cells” value ([4]; SF cultures) of the same compound?
Answer: 51.3 ± 4.0^A %

Question: And the “No. of SRCs generated per 1 × 10^6 CD34+ starting cells” value ([5]; Poisson statistics, VPA 7 days)?
Answer: 32,258

Question: What about the “increase in the number of SRCs compared with cells cultured under control conditions” value ([5]; VPA treatment versus control cultures) of the same compound?
Answer: 299 fold

Question: And the “increase in the number of SRCs compared with PCs” value ([5]; VPA treatment versus primary CB CD34+ cells)?
Answer: 36 fold

Question: And the “No. of mice with human cell chimerism/total number of mice transplanted” value ([5]; progeny of 50 CD34+ cells)?
Answer: 8/10

Question: What about the “No. of mice with human cell chimerism/total number of mice transplanted” value ([5]; progeny of 250 CD34+ cells) of the same compound?
Answer: 10/10

Question: And the “No. of mice with human cell chimerism/total number of mice transplanted” value ([5]; progeny of 500 CD34+ cells)?
Answer: 8/8

Question: And the “No. of mice with human cell chimerism/total number of mice transplanted” value ([5]; progeny of 2,500 CD34+ cells)?
Answer: 7/7

Question: What about the “No. of mice with human cell chimerism/total number of mice transplanted” value ([5]; progeny of 5,000 CD34+ cells) of the same compound?
Answer: 7/7

Question: What about the teratoma formation [6] of the same compound?
Answer: did not form teratomas; also recorded: neither control nor VPA treated CD34+ cells formed teratomas

Question: What about the “absolute numbers of BFU-E and CFU-Mix from ALDH+CD34+ cells” value [7, 9] of the same compound?
Answer: 1.4×10^7±0.88×10^7

Question: And the “numbers of BFU-E and CFU-Mix from ALDH-CD34+ cells” value [7, 9]?
Answer: 2.7×10^6±1.0×10^6

Question: What about the “absolute numbers of BFU-E and CFU-Mix from ALDH+CD34+ cells” value [7, 10] of the same compound?
Answer: 8.4×10^7±6.7×10^7 /CB collection

Question: What about the “numbers of BFU-E and CFU-Mix from ALDH-CD34+ cells” value [7, 10] of the same compound?
Answer: 3.5×10^5±0.78×10^5

Question: And the “HDAC5 expression relative to b-ACTIN (%)” value [8]?
Answer: 21.4 ± 10.7%
